{
  "source": "paper PMC11882969",
  "about": "(Nature Communications, 2025)",
  "target": "hCB1 (Homo sapiens, UniProt P21554)",
  "sequence (P21554 whole entry)": "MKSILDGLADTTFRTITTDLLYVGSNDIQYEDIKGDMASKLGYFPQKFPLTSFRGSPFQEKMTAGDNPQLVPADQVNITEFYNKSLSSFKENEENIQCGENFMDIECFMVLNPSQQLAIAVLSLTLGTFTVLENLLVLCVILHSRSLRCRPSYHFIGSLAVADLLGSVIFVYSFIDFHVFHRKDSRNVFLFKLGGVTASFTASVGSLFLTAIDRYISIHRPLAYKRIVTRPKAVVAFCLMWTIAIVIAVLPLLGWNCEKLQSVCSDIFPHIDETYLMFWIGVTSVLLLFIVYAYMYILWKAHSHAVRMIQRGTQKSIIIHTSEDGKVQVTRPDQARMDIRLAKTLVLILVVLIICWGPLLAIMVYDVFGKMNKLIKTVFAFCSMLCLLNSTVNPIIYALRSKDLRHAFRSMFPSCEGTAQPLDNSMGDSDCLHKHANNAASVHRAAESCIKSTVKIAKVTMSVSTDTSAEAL",
  "assay": "bioSensAll ebBRET signaling profiling, hCB1",
  "assay_type": "cell-based",
  "set-up": "host or cells: HEK293SL cells, transient PEI transfection",
  "settings": "for Gi1 hCB1 response: Gi1 biosensor; for Gi1 hCB1 / GoB hCB1: single replicate values, FigS6a",
  "note": "“And” between values parts separate entries of the source, which are not always exact repeats. Identical values can stand only once.",
  "data": [
    {"molecule": "COc1cccc(C(NC(=O)c2cc(C)n(-c3cccc(C(F)(F)F)c3)n2)c2ccco2)c1", "note": "(stereo not drawn) [‘1087]", "values": [
      {"measurement": "Gi1 hCB1 response", "setting": "Log [Compound] (M) -4.22186", "value": 111.515},
      {"measurement": "Gi1 hCB1 response", "setting": "Log [Compound] (M) -4.63927", "value": -38.2838},
      {"measurement": "Gi1 hCB1 response", "setting": "Log [Compound] (M) -5.05788", "value": -49.9669},
      {"measurement": "Gi1 hCB1 response", "setting": "Log [Compound] (M) -5.47381", "value": 11.0449},
      {"measurement": "Gi1 hCB1 response", "setting": "Log [Compound] (M) -5.89285", "value": -12.478},
      {"measurement": "Gi1 hCB1 response", "setting": "Log [Compound] (M) -6.31878", "value": -17.0885},
      {"measurement": "Gi1 hCB1 response", "setting": "Log [Compound] (M) -6.72585", "value": -9.994},
      {"measurement": "Gi1 hCB1 response", "setting": "Log [Compound] (M) -7.14267", "value": -10.3741},
      {"measurement": "Gi1 hCB1 response", "setting": "Log [Compound] (M) -7.55284", "value": 10.754},
      {"measurement": "Gi1 hCB1 response", "setting": "Log [Compound] (M) -8", "value": -2.496},
      {"measurement": "Gi1 hCB1 response", "setting": "Log [Compound] (M) -8.22186", "value": 59.7022},
      {"measurement": "Gi1 hCB1 response", "setting": "Log [Compound] (M) -8.39794", "value": 12.6788},
      {"measurement": "Gi1 hCB1 response", "setting": "Log [Compound] (M) -8.68787", "value": -1.377},
      {"measurement": "Gi1 hCB1 response", "setting": "Log [Compound] (M) -9.15521", "value": -24.5192},
      {"measurement": "Gi1 hCB1 response", "setting": "Log [Compound] (M) -9.61989", "value": 86.3361},
      {"measurement": "Gi1 hCB1 response", "setting": "Log [Compound] (M) -10.0969", "value": -14.3804},
      {"measurement": "Gi1 hCB1 response", "setting": "Log [Compound] (M) -10.5529", "value": -6.726},
      {"measurement": "Gi1 hCB1 response", "setting": "Log [Compound] (M) -11.0177", "value": 6.211},
      {"measurement": "Gi1 hCB1 response", "setting": "Log [Compound] (M) -11.4949", "value": 9.702},
      {"measurement": "Gi1 hCB1 response", "setting": "Log [Compound] (M) -11.9208", "value": -11.0679},
      {"measurement": "Gi1 hCB1 response", "setting": "Log [Compound] (M) -12.3979", "value": -4.555},
      {"measurement": "Gi1 hCB1 response", "setting": "Log [Compound] (M) -12.8861", "value": -5.652},
      {"measurement": "Gi1 hCB1 response", "setting": "Log [Compound] (M) -13, individual replicate values", "value": "-4.331 and 29.5096"},
      {"measurement": "Gi1 hCB1", "setting": "Log [Compound] (M) -4.22186", "value": -6.833},
      {"measurement": "GoB hCB1", "setting": "Log [Compound] (M) -4.22186", "value": -8.4986},
      {"measurement": "Gi1 hCB1", "setting": "Log [Compound] (M) -4.63927", "value": -6.864},
      {"measurement": "GoB hCB1", "setting": "Log [Compound] (M) -4.63927", "value": -10.0272},
      {"measurement": "Gi1 hCB1", "setting": "Log [Compound] (M) -5.05788", "value": -7.357},
      {"measurement": "GoB hCB1", "setting": "Log [Compound] (M) -5.05788", "value": -7.545},
      {"measurement": "Gi1 hCB1", "setting": "Log [Compound] (M) -5.47381", "value": -6.895},
      {"measurement": "GoB hCB1", "setting": "Log [Compound] (M) -5.47381", "value": -9.02},
      {"measurement": "Gi1 hCB1", "setting": "Log [Compound] (M) -5.89285", "value": -4.166},
      {"measurement": "GoB hCB1", "setting": "Log [Compound] (M) -5.89285", "value": -5.891},
      {"measurement": "Gi1 hCB1", "setting": "Log [Compound] (M) -6.31878", "value": -2.0693},
      {"measurement": "GoB hCB1", "setting": "Log [Compound] (M) -6.31878", "value": -3.409},
      {"measurement": "Gi1 hCB1", "setting": "Log [Compound] (M) -6.72585", "value": -1.1443},
      {"measurement": "GoB hCB1", "setting": "Log [Compound] (M) -6.72585", "value": -0.5859},
      {"measurement": "Gi1 hCB1", "setting": "Log [Compound] (M) -7.14267", "value": 2.34},
      {"measurement": "GoB hCB1", "setting": "Log [Compound] (M) -7.14267", "value": -0.6579},
      {"measurement": "Gi1 hCB1", "setting": "Log [Compound] (M) -7.55284", "value": 3.064},
      {"measurement": "GoB hCB1", "setting": "Log [Compound] (M) -7.55284", "value": 2.687},
      {"measurement": "Gi1 hCB1", "setting": "Log [Compound] (M) -8", "value": 2.926},
      {"measurement": "GoB hCB1", "setting": "Log [Compound] (M) -8", "value": 1.8778},
      {"measurement": "Gi1 hCB1", "setting": "Log [Compound] (M) -8.22186", "value": 2.463},
      {"measurement": "GoB hCB1", "setting": "Log [Compound] (M) -8.22186", "value": -2.043},
      {"measurement": "Gi1 hCB1", "setting": "Log [Compound] (M) -8.39794", "value": -1.175},
      {"measurement": "GoB hCB1", "setting": "Log [Compound] (M) -8.39794", "value": 1.572},
      {"measurement": "Gi1 hCB1", "setting": "Log [Compound] (M) -8.68787", "value": 1.6},
      {"measurement": "GoB hCB1", "setting": "Log [Compound] (M) -8.68787", "value": -4.093},
      {"measurement": "Gi1 hCB1", "setting": "Log [Compound] (M) -9.15521", "value": 2.463},
      {"measurement": "GoB hCB1", "setting": "Log [Compound] (M) -9.15521", "value": -0.01046},
      {"measurement": "Gi1 hCB1", "setting": "Log [Compound] (M) -9.61989", "value": 1.8311},
      {"measurement": "GoB hCB1", "setting": "Log [Compound] (M) -9.61989", "value": 0.3672},
      {"measurement": "Gi1 hCB1", "setting": "Log [Compound] (M) -10.0969", "value": 1.353},
      {"measurement": "GoB hCB1", "setting": "Log [Compound] (M) -10.0969", "value": 4.054},
      {"measurement": "Gi1 hCB1", "setting": "Log [Compound] (M) -10.5529", "value": 3.666},
      {"measurement": "GoB hCB1", "setting": "Log [Compound] (M) -10.5529", "value": 3.3884},
      {"measurement": "Gi1 hCB1", "setting": "Log [Compound] (M) -11.0177", "value": 2.525},
      {"measurement": "GoB hCB1", "setting": "Log [Compound] (M) -11.0177", "value": 3.856},
      {"measurement": "Gi1 hCB1", "setting": "Log [Compound] (M) -11.4949", "value": 4.128},
      {"measurement": "GoB hCB1", "setting": "Log [Compound] (M) -11.4949", "value": 2.507},
      {"measurement": "Gi1 hCB1", "setting": "Log [Compound] (M) -11.9208", "value": 3.265},
      {"measurement": "GoB hCB1", "setting": "Log [Compound] (M) -11.9208", "value": 1.033},
      {"measurement": "Gi1 hCB1", "setting": "Log [Compound] (M) -12.3979", "value": 2.386},
      {"measurement": "GoB hCB1", "setting": "Log [Compound] (M) -12.3979", "value": 3.442},
      {"measurement": "Gi1 hCB1", "setting": "Log [Compound] (M) -12.8861", "value": 2.001},
      {"measurement": "GoB hCB1", "setting": "Log [Compound] (M) -12.8861", "value": 2.363},
      {"measurement": "Gi1 hCB1", "setting": "Log [Compound] (M) -13", "value": "2.402 and 0.3203"},
      {"measurement": "GoB hCB1", "setting": "Log [Compound] (M) -13", "value": "4.845 and 3.406"}
    ]}
  ]
}
